# Measured values as given in patent US9422293B2 (priority 2006, dated 2016).
# Where a name gives a salt, the structure may show the parent alone.
# Molecular target: rat TRPV1 (Rattus norvegicus (Rat), UniProt O35433)
# Details: read-out: Rat IC50
# Sequence of rat TRPV1 (O35433 whole entry): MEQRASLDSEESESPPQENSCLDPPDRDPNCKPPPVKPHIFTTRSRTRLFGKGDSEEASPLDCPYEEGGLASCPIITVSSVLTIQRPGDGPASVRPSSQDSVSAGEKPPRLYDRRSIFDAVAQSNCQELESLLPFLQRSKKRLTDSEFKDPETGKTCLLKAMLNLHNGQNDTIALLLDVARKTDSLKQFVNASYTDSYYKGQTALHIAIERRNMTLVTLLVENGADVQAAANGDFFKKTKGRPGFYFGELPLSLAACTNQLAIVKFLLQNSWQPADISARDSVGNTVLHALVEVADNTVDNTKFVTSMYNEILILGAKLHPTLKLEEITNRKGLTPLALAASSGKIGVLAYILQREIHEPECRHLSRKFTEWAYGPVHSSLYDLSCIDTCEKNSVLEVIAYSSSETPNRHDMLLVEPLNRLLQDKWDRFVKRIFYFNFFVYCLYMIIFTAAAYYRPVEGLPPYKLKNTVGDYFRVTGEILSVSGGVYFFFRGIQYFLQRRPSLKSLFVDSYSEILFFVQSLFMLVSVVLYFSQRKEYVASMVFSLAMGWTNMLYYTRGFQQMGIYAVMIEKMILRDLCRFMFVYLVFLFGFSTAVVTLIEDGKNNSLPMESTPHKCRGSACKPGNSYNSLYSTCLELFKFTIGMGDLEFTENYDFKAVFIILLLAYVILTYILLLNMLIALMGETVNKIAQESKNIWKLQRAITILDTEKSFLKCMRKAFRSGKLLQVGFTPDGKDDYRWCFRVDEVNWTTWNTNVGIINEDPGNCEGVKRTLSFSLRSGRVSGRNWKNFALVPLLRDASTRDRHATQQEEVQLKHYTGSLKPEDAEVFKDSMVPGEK
row,SMILES,IC50
1,"CN1CCCc2ccc(Nc3nc(OC4CCOC4)nc4c3CCN(c3ncccc3C(F)(F)F)CC4)cc21 (centres unmarked) [Example 323, N-(1-Methyl-1,2,3,4-tetrahydroquinolin-7-yl)-2-(tetrahydrofuran-3-yloxy)-7-[3-(trifluoromethyl)pyridin-2-yl]-6,7,8,9-tetrahydro-5H-pyrimido[4,5-d]azepin-4-amine]",0.67 µM
2,"CC(C)c1nc2c(c(Nc3ccc(C(F)(F)F)c(Cl)c3)n1)CCN(c1ncccc1C(F)(F)F)CC2 [Example 128, N-[3-Chloro-4-(trifluoromethyl)phenyl]-2-(1-methylethyl)-7-[3-(trifluoromethyl)pyridin-2-yl]-6,7,8,9-tetrahydro-5H-pyrimido[4,5-d]azepin-4-amine]",0.15 µM
3,"CSc1nc2c(c(Nc3ccc4c(c3)N(C)CCC4)n1)CCN(c1ncccc1C(F)(F)F)CC2 [Example 205, 2-(Methylsulfanyl)-N-(1-methyl-1,2,3,4-tetrahydroquinolin-7-yl)-7-[3-(trifluoromethyl)pyridin-2-yl]-6,7,8,9-tetrahydro-5H-pyrimido[4,5-d]azepin-4-amine]",2.28 µM
4,"CN(C)c1nc2c(c(Nc3ccc4c(c3)OCCO4)n1)CCN(c1ncccc1C(F)(F)F)CC2 [Example 68B, N^4-(2,3-Dihydro-benzo[1,4]dioxin-6-yl)-N^2,N^2-dimethyl-7-(3-trifluoromethyl-pyridin-2-yl)-6,7,8,9-tetrahydro-5H-pyrimido[4,5-d]azepine-2,4-diamine trifluoroacetic acid salt]",3.2 µM
5,"CN1CCCc2ccc(Nc3nc(OC4CCCC4)nc4c3CCN(c3ncccc3C(F)(F)F)CC4)cc21 [Example 324, 2-(Cyclopentyloxy)-N-(1-methyl-1,2,3,4-tetrahydroquinolin-7-yl)-7-[3-(trifluoromethyl)pyridin-2-yl]-6,7,8,9-tetrahydro-5H-pyrimido[4,5-d]azepin-4-amine]",0.1 µM
6,"CS(=O)(=O)c1cccnc1N1CCc2ncnc(Nc3ccc(C(F)(F)F)cc3)c2CC1 [Example 283, 7-[3-(Methylsulfonyl)pyridin-2-yl]-N-[4-(trifluoromethyl)phenyl]-6,7,8,9-tetrahydro-5H-pyrimido[4,5-d]azepin-4-amine]",8.52 µM
7,"CC(C)c1nc2c(c(Nc3ccc(C(C)(C)C)cc3)n1)CCN(c1ncc([N+](=O)[O-])cc1C(F)(F)F)CC2 [Example 290, N-[4-(1,1-Dimethylethyl)phenyl]-2-(1-methylethyl)-7-[5-nitro-3-(trifluoromethyl)pyridin-2-yl]-6,7,8,9-tetrahydro-5H-pyrimido[4,5-d]azepin-4-amine]",0.1 µM
8,"CC(C)c1nc2c(c(Nc3ccc(C(C)O)cc3)n1)CCN(c1ncccc1C(F)(F)F)CC2 (centres unmarked) [Example 182, 1-[4-({2-(1-Methylethyl)-7-[3-(trifluoromethyl)pyridin-2-yl]-6,7,8,9-tetrahydro-5H-pyrimido[4,5-d]azepin-4-yl}amino)phenyl]ethanol]",0.79 µM
9,"Cc1cc(C(F)(F)F)ccc1Nc1nc(OC(C)C2CC2)nc2c1CCN(c1ncccc1C(F)(F)F)CC2 (centres unmarked) [Example 325, 2-[(1-Cyclopropylethyl)oxy]-N-[2-methyl-4-(trifluoromethyl)phenyl]-7-[3-(trifluoromethyl)pyridin-2-yl]-6,7,8,9-tetrahydro-5H-pyrimido[4,5-d]azepin-4-amine]",0.3 µM
10,"Cc1cc(C(F)(F)F)ccc1Nc1nc(OC2CCCCC2)nc2c1CCN(c1ncccc1C(F)(F)F)CC2 [Example 326, 2-(Cyclohexyloxy)-N-[2-methyl-4-(trifluoromethyl)phenyl]-7-[3-(trifluoromethyl)pyridin-2-yl]-6,7,8,9-tetrahydro-5H-pyrimido[4,5-d]azepin-4-amine]",0.6 µM
11,"CN(C)c1nc2c(c(Nc3ccc([N+](=O)[O-])cc3)n1)CCN(c1ncccc1C(F)(F)F)CC2 [Example 72B, N^2,N^2-Dimethyl-N^4-(4-nitro-phenyl)-7-(3-trifluoromethyl-pyridin-2-yl)-6,7,8,9-tetrahydro-5H-pyrimido[4,5-d]azepine-2,4-diamine trifluoroacetic acid salt]",0.18 µM
12,"CC(C)(CO)c1ccc(Nc2nc(N3CCCCC3)nc3c2CCN(c2ncccc2C(F)(F)F)CC3)cc1 [Example 383, 2-Methyl-2-{4-[2-piperidin-1-yl-7-(3-trifluoromethyl-pyridin-2-yl)-6,7,8,9-tetrahydro-5H-pyrimido[4,5-d]azepin-4-ylamino]-phenyl}-propan-1-ol]",0.16 µM
13,"COCc1nc2c(c(Nc3ccc(C(F)(F)F)c(Cl)c3)n1)CCN(c1ncccc1C(F)(F)F)CC2 [Example 80B, (3-Chloro-4-trifluoromethyl-phenyl)-[2-methoxymethyl-7-(3-trifluoromethyl-pyridin-2-yl)-6,7,8,9-tetrahydro-5H-pyrimido[4,5-d]azepin-4-yl]-amine trifluoroacetic acid salt]",0.13 µM
14,"CC(C)c1nc2c(c(NC3CCC(C(C)(C)C)CC3)n1)CCN(c1ncccc1C(F)(F)F)CC2 (centres unmarked) [Example 122, N-[4-(1,1-Dimethylethyl)cyclohexyl]-2-(1-methylethyl)-7-[3-(trifluoromethyl)pyridin-2-yl]-6,7,8,9-tetrahydro-5H-pyrimido[4,5-d]azepin-4-amine]",0.19 µM
15,"CC(C)N1CCC(Oc2nc3c(c(Nc4ccc(C(F)(F)F)cc4)n2)CCN(c2ncccc2C(F)(F)F)CC3)C1 (centres unmarked) [Example 315, 2-{[1-(1-Methylethyl)pyrrolidin-3-yl]oxy}-N-[4-(trifluoromethyl)phenyl]-7-[3-(trifluoromethyl)pyridin-2-yl]-6,7,8,9-tetrahydro-5H-pyrimido[4,5-d]azepin-4-amine]",5.52 µM
16,"CC(C)c1nc2c(c(Nc3ccc(C(C)(O)C(F)(F)F)cc3)n1)CCN(c1ncccc1C(F)(F)F)CC2 (centres unmarked) [Example 179, 1,1,1-Trifluoro-2-[4-({2-(1-methylethyl)-7-[3-(trifluoromethyl)pyridin-2-yl]-6,7,8,9-tetrahydro-5H-pyrimido[4,5-d]azepin-4-yl}amino)phenyl]propan-2-ol]",1.34 µM
17,"CC(C)c1nc2c(c(Nc3ccc(S(=O)(=O)N4CCCC4)cc3)n1)CCN(c1ncccc1C(F)(F)F)CC2 [Example 152, 2-(1-Methylethyl)-N-[4-(pyrrolidin-1-ylsulfonyl)phenyl]-7-[3-(trifluoromethyl)pyridin-2-yl]-6,7,8,9-tetrahydro-5H-pyrimido[4,5-d]azepin-4-amine]",0.55 µM
18,"CN(C)c1nc2c(c(Nc3ccc(C(C)(C)C)cc3)n1)CCN(c1ncccc1C(F)(F)F)CC2 [Example 48, N^4-(4-tert-Butyl-phenyl)-N^2,N^2-dimethyl-7-(3-trifluoromethyl-pyridin-2-yl)-6,7,8,9-tetrahydro-5H-pyrimido[4,5-d]azepine-2,4-diamine]",0.074 µM
19,"CC(C)N1CCN(c2nc3c(c(Nc4ccc(C(F)(F)F)cc4)n2)CCN(c2ncccc2C(F)(F)F)CC3)CC1 [Example 60B, [2-(4-Isopropyl-piperazin-1-yl)-7-(3-trifluoromethyl-pyridin-2-yl)-6,7,8,9-tetrahydro-5H-pyrimido[4,5-d]azepin-4-yl]-(4-trifluoromethyl-phenyl)-amine trifluoroacetic acid salt]",0.14 µM
20,"COCCN(C)c1nc2c(c(Nc3ccc(C(F)(F)F)cc3)n1)CCN(c1ncccc1C(F)(F)F)CC2 [Example 93B, N^2-(2-Methoxy-ethyl)-N^2-methyl-N^4-(4-trifluoromethyl-phenyl)-7-(3-trifluoromethyl-pyridin-2-yl)-6,7,8,9-tetrahydro-5H-pyrimido[4,5-d]azepine-2,4-diamine trifluoroacetic acid salt]",0.037 µM
